Laboratory results published in patent US8586579B2, “Anellated pyridine compounds” (Hoffmann-La Roche Inc., priority 2010, dated 2013).
Where two headings read alike, the source gives them in different places.

Tests used:
human 5-HT2A receptor = human 5-HT2A receptor (Homo sapiens (Human), UniProt P28223); experiment: Radioligand binding assay, [3H]-ketanserin, human 5-HT2A receptor
In short: (§1)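 Incubation was 1 h at RT, using 1.1 nM [3H]-ketanserin at 5-HT2A or 0.5 nM [3H]-spiperone at D3, on membranes of transiently transfected HEK293 EBNA cells. Nonspecific binding was set with 10 μM unlabelled spiperone.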

human D2 receptor = human D2 receptor (Homo sapiens (Human), UniProt P14416); experiment: Radioligand binding assay, [3H]-spiperone, human D2 receptor; settings: membranes of HEK293 EBNA cells expressing human D2; 0.7 nM [3H]-spiperone
In short: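 Competition binding used ~0.7 nM [3H]-spiperone, 1 h at room temperature, pH 7.4 Tris/salt buffer, on transiently transfected HEK293 EBNA membranes bearing human D2.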

human D3 receptor = human D3 receptor (Homo sapiens (Human), UniProt P35462); experiment: Radioligand binding assay, [3H]-spiperone, human D3 receptor; settings: membranes of HEK293 EBNA cells expressing human D3; 0.5 nM [3H]-spiperone
In short: as §1

[1] = membranes of HEK293 EBNA cells expressing human 5-HT2A, 1.1 nM [3H]-ketanserin

Chain of human D3 receptor (P35462 whole entry): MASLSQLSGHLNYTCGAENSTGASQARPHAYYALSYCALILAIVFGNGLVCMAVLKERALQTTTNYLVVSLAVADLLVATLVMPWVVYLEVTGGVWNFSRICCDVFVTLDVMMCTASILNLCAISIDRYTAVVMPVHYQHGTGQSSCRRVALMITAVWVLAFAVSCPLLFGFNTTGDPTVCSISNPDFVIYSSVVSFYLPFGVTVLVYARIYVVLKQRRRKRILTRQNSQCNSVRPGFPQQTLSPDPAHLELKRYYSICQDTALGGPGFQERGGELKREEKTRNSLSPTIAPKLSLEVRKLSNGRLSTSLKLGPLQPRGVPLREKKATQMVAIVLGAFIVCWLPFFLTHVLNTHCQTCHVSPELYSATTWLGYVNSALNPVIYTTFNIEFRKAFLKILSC
Chain of human D2 receptor (P14416 whole entry): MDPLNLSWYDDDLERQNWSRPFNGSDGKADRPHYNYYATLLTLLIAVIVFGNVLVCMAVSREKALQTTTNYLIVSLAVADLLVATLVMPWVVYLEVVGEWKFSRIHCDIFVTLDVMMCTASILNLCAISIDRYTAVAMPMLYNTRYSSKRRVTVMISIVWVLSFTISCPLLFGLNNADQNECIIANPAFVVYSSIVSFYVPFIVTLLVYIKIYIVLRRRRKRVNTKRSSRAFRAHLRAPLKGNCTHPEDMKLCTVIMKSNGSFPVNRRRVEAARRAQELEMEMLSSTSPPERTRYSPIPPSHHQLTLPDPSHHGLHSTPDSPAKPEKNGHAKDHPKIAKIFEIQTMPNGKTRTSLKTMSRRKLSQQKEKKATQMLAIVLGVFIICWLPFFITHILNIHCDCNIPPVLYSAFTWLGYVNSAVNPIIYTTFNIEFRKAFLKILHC
Chain of human 5-HT2A receptor (P28223 whole entry): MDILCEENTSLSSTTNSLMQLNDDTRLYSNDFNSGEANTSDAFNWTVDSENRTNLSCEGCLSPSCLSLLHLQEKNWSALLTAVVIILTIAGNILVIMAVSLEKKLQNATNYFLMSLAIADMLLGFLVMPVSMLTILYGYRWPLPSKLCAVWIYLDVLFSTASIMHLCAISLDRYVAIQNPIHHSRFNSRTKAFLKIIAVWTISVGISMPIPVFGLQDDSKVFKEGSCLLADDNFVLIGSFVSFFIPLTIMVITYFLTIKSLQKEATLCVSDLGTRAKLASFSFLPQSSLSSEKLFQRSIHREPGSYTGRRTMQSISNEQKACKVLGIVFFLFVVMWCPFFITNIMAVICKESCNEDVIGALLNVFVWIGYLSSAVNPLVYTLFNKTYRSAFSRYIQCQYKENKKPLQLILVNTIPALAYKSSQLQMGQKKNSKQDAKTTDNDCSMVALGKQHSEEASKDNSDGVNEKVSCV

Row | SMILES | melting point | Ki (human 5-HT2A receptor; [1]) | Ki (human D2 receptor) | Ki (human D3 receptor) | Ki (human 5-HT2A receptor)
1 | O=C(N[C@H]1CC[C@H](CCN2CCN(c3nccc4c3CCO4)CC2)CC1)C(F)(F)F [Example 79, trans-N-(4-{2-[4-(2,3-Dihydro-furo[3,2-c]pyridin-4-yl)-piperazin-1-yl]-ethyl}-cyclohexyl)-2,2,2-trifluoro-acetamide] | 213 °C | 19.2 nM | 773 nM | 47.3 nM | 
2 | CC(C)=CC(=O)N[C@H]1CC[C@H](CCN2CCN(c3nccc4c3CCO4)CC2)CC1 [Example 80, 3-Methyl-but-2-enoic acid trans-(4-{2-[4-(2,3-dihydro-furo[3,2-c]pyridin-4-yl)-piperazin-1-yl]-ethyl}-cyclohexyl)-amide] | 164.5 °C | 16.2 nM | 198 nM | 15.4 nM | 
3 | C/C=C/CC(=O)N[C@H]1CC[C@H](CCN2CCN(c3nccc4c3CCO4)CC2)CC1 [Example 81, (E)-Pent-3-enoic acid trans-(4-{2-[4-(2,3-dihydro-furo[3,2-c]pyridin-4-yl)-piperazin-1-yl]-ethyl}-cyclohexyl)-amide] | 175.5 °C | 22.8 nM | 945 nM | 12.9 nM | 
4 | CC#CC(=O)N[C@H]1CC[C@H](CCN2CCN(c3nccc4c3CCO4)CC2)CC1 [Example 82, But-2-ynoic acid trans-(4-{2-[4-(2,3-dihydro-furo[3,2-c]pyridin-4-yl)-piperazin-1-yl]-ethyl}-cyclohexyl)-amide] | 193 °C | 12.2 nM | 426 nM | 17.2 nM | 
5 | O=CN[C@H]1CC[C@H](CCN2CCN(c3nccc4c3CCO4)CC2)CC1 [Example 83, trans-N-(4-{2-[4-(2,3-Dihydro-furo[3,2-c]pyridin-4-yl)-piperazin-1-yl]-ethyl}-cyclohexyl)-formamide] | 170.5 °C | 23.5 nM | 837 nM | 28 nM | 
6 | Cc1cc(CC(=O)N[C@H]2CC[C@H](CCN3CCN(c4nccc5c4CCO5)CC3)CC2)on1 [Example 84, trans-N-(4-{2-[4-(2,3-Dihydro-furo[3,2-c]pyridin-4-yl)-piperazin-1-yl]-ethyl}-cyclohexyl)-2-(3-methyl-isoxazol-5-yl)-acetamide] | 172.5 °C | 15.2 nM | 1300 nM | 4.01 nM | 
7 | Cc1cc(C(=O)N[C@H]2CC[C@H](CCN3CCN(c4nccc5c4CCO5)CC3)CC2)on1 [Example 85, 3-Methyl-isoxazole-5-carboxylic acid trans-(4-{2-[4-(2,3-dihydro-furo[3,2-c]pyridin-4-yl)-piperazin-1-yl]-ethyl}-cyclohexyl)-amide] | 218 °C |  | 397 nM | 31.1 nM | 15.7 nM
8 | CN(C)C(=O)CCC(=O)N[C@H]1CC[C@H](CCN2CCN(c3nccc4c3CCO4)CC2)CC1 [Example 86, trans-N-(4-{2-[4-(2,3-Dihydro-furo[3,2-c]pyridin-4-yl)-piperazin-1-yl]-ethyl}-cyclohexyl)-N′,N′-dimethyl-succinamide] | 188 °C | 23.9 nM | 2560 nM | 37.6 nM | 
9 | CC(C)(O)CC(=O)N[C@H]1CC[C@H](CCN2CCN(c3nccc4c3CCO4)CC2)CC1 [Example 87, trans-N-(4-{2-[4-(2,3-Dihydro-furo[3,2-c]pyridin-4-yl)-piperazin-1-yl]-ethyl}-cyclohexyl)-3-hydroxy-3-methyl-butyramide] | 208 °C | 25 nM | 1000 nM | 21.6 nM | 
10 | O=C(C[C@@H](O)C(F)(F)F)N[C@H]1CC[C@H](CCN2CCN(c3nccc4c3CCO4)CC2)CC1 [Example 88, trans-(R)—N-(4-{2-[4-(2,3-Dihydro-furo[3,2-c]pyridin-4-yl)-piperazin-1-yl]-ethyl}-cyclohexyl)-4,4,4-trifluoro-3-hydroxy-butyramide] | 207 °C |  | 732 nM | 19.7 nM | 33.1 nM
11 | CC[C@H](O)CC(=O)N[C@H]1CC[C@H](CCN2CCN(c3nccc4c3CCO4)CC2)CC1 [Example 89, (S)-3-Hydroxy-pentanoic acid trans-(4-{2-[4-(2,3-dihydro-furo[3,2-c]pyridin-4-yl)-piperazin-1-yl]-ethyl}-cyclohexyl)-amide] | 158 °C |  | 887 nM | 20 nM | 30 nM
12 | CO[C@H]1CC[C@H](CC(=O)N[C@H]2CC[C@H](CCN3CCN(c4nccc5c4CCO5)CC3)CC2)C1 [Example 90, trans-N-(4-{2-[4-(2,3-Dihydro-furo[3,2-c]pyridin-4-yl)-piperazin-1-yl]-ethyl}-cyclohexyl)-2-((1S,3S)-3-methoxy-cyclopentyl)-acetamide] | 241 °C | 22.4 nM | 1290 nM | 19.4 nM | 
13 | CCCC(=O)N[C@H]1CC[C@H](CCN2CCN(c3nccc4c3CCO4)CC2)CC1 [Example 92, trans-N-(4-{2-[4-(2,3-Dihydro-furo[3,2-c]pyridin-4-yl)-piperazin-1-yl]-ethyl}-cyclohexyl)-butyramide] | 191 °C | 23.1 nM | 828 nM | 15.4 nM | 
14 | CC(C)CCC(=O)N[C@H]1CC[C@H](CCN2CCN(c3nccc4c3CCO4)CC2)CC1 [Example 93, 4-Methyl-pentanoic acid trans-(4-{2-[4-(2,3-dihydro-furo[3,2-c]pyridin-4-yl)-piperazin-1-yl]-ethyl}-cyclohexyl)-amide] | 182.5 °C | 24.6 nM | 1280 nM | 22.7 nM | 
15 | CCCCC(=O)N[C@H]1CC[C@H](CCN2CCN(c3nccc4c3CCO4)CC2)CC1 [Example 94, Pentanoic acid trans-(4-{2-[4-(2,3-dihydro-furo[3,2-c]pyridin-4-yl)-piperazin-1-yl]-ethyl}-cyclohexyl)-amide] | 180.5 °C | 24.7 nM | 1140 nM | 19.2 nM | 
16 | O=C(CCC(F)(F)F)N[C@H]1CC[C@H](CCN2CCN(c3nccc4c3CCO4)CC2)CC1 [Example 95, trans-N-(4-{2-[4-(2,3-Dihydro-furo[3,2-c]pyridin-4-yl)-piperazin-1-yl]-ethyl}-cyclohexyl)-4,4,4-trifluoro-butyramide] | 195.5 °C |  | 1250 nM | 20 nM | 29.6 nM
17 | CC(=O)N[C@H]1CC[C@H](CCN2CCN(c3nc(C)cc4occc34)CC2)CC1 [Example 96, trans-N-(4-{2-[4-(6-Methyl-furo[3,2-c]pyridin-4-yl)-piperazin-1-yl]-ethyl}-cyclohexyl)-acetamide] | 207.5 °C | 75.2 nM | 249 nM | 4.64 nM | 
18 | Cc1cc2occc2c(N2CCN(CC[C@H]3CC[C@H](NC(=O)C4CCOCC4)CC3)CC2)n1 [Example 97, trans-Tetrahydro-pyran-4-carboxylic acid (4-{2-[4-(6-methyl-furo[3,2-c]pyridin-4-yl)-piperazin-1-yl]-ethyl}-cyclohexyl)-amide] | 219 °C |  | 275 nM | 14.2 nM | 25.5 nM
19 | Cc1cc2occc2c(N2CCN(CC[C@H]3CC[C@H](NC(=O)CC4CCOCC4)CC3)CC2)n1 [Example 98, trans-N-(4-{2-[4-(6-Methyl-furo[3,2-c]pyridin-4-yl)-piperazin-1-yl]-ethyl}-cyclohexyl)-2-(tetrahydro-pyran-4-yl)-acetamide] | 212.5 °C | 75.9 nM | 641 nM | 9.45 nM | 
20 | COCCC(=O)N[C@H]1CC[C@H](CCN2CCN(c3nc(C)cc4occc34)CC2)CC1 [Example 99, trans-3-Methoxy-N-(4-{2-[4-(6-methyl-furo[3,2-c]pyridin-4-yl)-piperazin-1-yl]-ethyl}-cyclohexyl)-propionamide] | 158 °C | 86.9 nM | 430 nM | 4.8 nM | 
21 | CC(=O)N[C@H]1CC[C@H](CCN2CCN(c3nc(C)cc4c3CCO4)CC2)CC1 [Example 100, trans-N-(4-{2-[4-(6-Methyl-2,3-dihydro-furo[3,2-c]pyridin-4-yl)-piperazin-1-yl]-ethyl}-cyclohexyl)-acetamide] | 217.5 °C | 215 nM | 915 nM | 7.58 nM | 
22 | Cc1cc2c(c(N3CCN(CC[C@H]4CC[C@H](NC(=O)C5CCOCC5)CC4)CC3)n1)CCO2 [Example 101, Tetrahydro-pyran-4-carboxylic acid trans-(4-{2-[4-(6-methyl-2,3-dihydro-furo[3,2-c]pyridin-4-yl)-piperazin-1-yl]-ethyl}-cyclohexyl)-amide] | 234.5 °C | 58.5 nM | 1950 nM | 34.6 nM | 
23 | Cc1cc2c(c(N3CCN(CC[C@H]4CC[C@H](NC(=O)CC5CCOCC5)CC4)CC3)n1)CCO2 [Example 102, trans-N-(4-{2-[4-(6-Methyl-2,3-dihydro-furo[3,2-c]pyridin-4-yl)-piperazin-1-yl]-ethyl}-cyclohexyl)-2-(tetrahydro-pyran-4-yl)-acetamide] | 218.5 °C | 193 nM | 1940 nM | 18.7 nM | 
24 | COCCC(=O)N[C@H]1CC[C@H](CCN2CCN(c3nc(C)cc4c3CCO4)CC2)CC1 [Example 103, trans-3-Methoxy-N-(4-{2-[4-(6-methyl-2,3-dihydro-furo[3,2-c]pyridin-4-yl)-piperazin-1-yl]-ethyl}-cyclohexyl)-propionamide] | 178.5 °C | 255 nM | 1490 nM | 11.8 nM | 
